System: Mild to Moderate Osteoarthritis of the Knee
Assay: Phase 2 study: WOMAC joint stiffness subscale score
Format: in vivo, human
Details: for Change of WOMAC Joint Stiffness score from baseline (±SEM) / Percentage of improvement from baseline, WOMAC Joint Stiffness score: all patients taken as active
From the text: This is a Phase 2, multicenter, randomized, double blind (within dose), placebo controlled, parallel group, proof of concept, and dose range finding study to evaluate the efficacy, safety, and PK of 2-(diethylamino)ethyl 2-(4-isobutylphenyl)propionate hydrochloride spray in adult subjects with clinically symptomatic mild to moderate OA of the knee. For subjects with bilateral knee pain, both knees will be treated, but the most symptomatic knee (i.e., the most painful knee as measured by the Western Ontario and McMaster University Osteoarthritis Index [WOMAC® 3.1] pain subscale score at Screening) will be designated as the target knee for efficacy analyses. For subjects with unilateral knee pain, only the symptomatic (target) knee will be treated.
After a Screening Period of up to 3 weeks and radiographic evaluation of the target knee joint space, a subject will be randomly assigned to 1 of 3 treatment groups in a 1:1:1 ratio with a 2:1 ratio of active:placebo within each treatment group (ie, 2 subjects to active treatment and 1 subject to placebo): • Group A: 8.75 mg 2-(diethylamino)ethyl 2-(4-isobutylphenyl)propionate/knee (2 sprays/knee, one spray to the medial surface and one spray to the lateral surface of the knee), twice daily (BID, approximately every 12 hours; n=50) or placebo (2 sprays/knee), BID (approximately every 12 hours; n=25) for a total of 4 sprays per knee per day; • Group B: 17.5 mg 2-(diethylamino)ethyl 2-(4-isobutylphenyl)propionate/knee (4 sprays/knee, one spray to the medial surface and one spray to the lateral surface of the knee, and one spray to front and one spray to the back of the knee), BID (approximately every 12 hours; n=50) or placebo (4 sprays/knee), BID (approximately every 12 hours; n=25) for a total of 8 sprays per knee per day; • Group C: 35 mg 2-(diethylamino)ethyl 2-(4-isobutylphenyl)propionate/knee (8 sprays/knee, each spray is to be applied to a different non-overlapping area around the knee, and the areas are to be uniformly distributed around the knee), BID (approximately every 12 hours; n=50) or placebo (8 sprays/knee), BID (approximately every 12 hours; n=25) for a total of 16 sprays per knee per day.
The VAS version of the WOMAC will be used for the Primary and Secondary Efficacy Endpoints. Efficacy endpoints will be assessed at Screening and Baseline (Day 1) and at the Week 2, Week 4, Week 8, and Week 12/EOS visits.
3.9.2. Secondary Efficacy Endpoints: • 1. Change from Baseline in the WOMAC (VAS) pain subscale score for the target knee at 2, 4, and 8 weeks of treatment; • 2. Change from Baseline in the WOMAC (VAS) stiffness subscale scores for the target knee and WOMAC (VAS) functional ability subscale scores at 2, 4, 8, and 12 weeks of treatment; • 3. Change from Baseline in the overall WOMAC (VAS) score at 2, 4, 8, and 12 weeks of treatment.
The Secondary Efficacy Endpoints, change from Baseline in the WOMAC subscale scores for pain, stiffness, and functional ability, and overall WOMAC score at 2, 4, 8, and 12 weeks of treatment, will be analyzed using the same methods as for the Primary Efficacy Endpoint.
To determine this, we assumed that all patients received 2-(diethylamino)ethyl 2-(4-isobutylphenyl)propionate, active drug treatment (i.e. all patients who received 2-(diethylamino)ethyl 2-(4-isobutylphenyl)propionate or placebo treatment for 12 weeks or mixed up treatment during the 12-week treatment, as 2-(diethylamino)ethyl 2-(4-isobutylphenyl)propionate-treated). Based on this assumption, that is, to treat this trial as an open-label study and that all patients received active treatment, we conducted efficacy analysis using top-line efficacy datasets prepared by CRO and the re-analysis results are presented in the following tables (Tables 29-47). […] (William G. Bensen, Justus J. Fiechtner, James 1. McMillen, et. al. Treatment of Osteoarthritis with Celecoxib. Mayo Clin Proc, November 1999. Vol 74, 1095-1105.)

[1] = 8.75 mg/knee (BID), Follow up (week 13, day 91)
[2] = 8.75 mg/knee (BID), Week 2 (day 14)
[3] = 8.75 mg/knee (BID), Week 4 (day 28)
[4] = 8.75 mg/knee (BID), Week 8 (day 56)
[5] = 8.75 mg/knee (BID), Week 12 (day 84)
[6] = 17.5 mg/knee (BID), Follow up (week 13, day 91)
[7] = 17.5 mg/knee (BID), Week 2 (day 14)
[8] = 17.5 mg/knee (BID), Week 4 (day 28)
[9] = 17.5 mg/knee (BID), Week 8 (day 56)
[10] = 17.5 mg/knee (BID), Week 12 (day 84)
[11] = 35 mg/knee (BID), Follow up (week 13, day 91)
[12] = 35 mg/knee (BID), Week 2 (day 14)
[13] = 35 mg/knee (BID), Week 4 (day 28)

## CCN(CC)CCOC(=O)C(C)c1ccc(CC(C)C)cc1 (stereo not shown) [2-(diethylamino)ethyl 2-(4-isobutylphenyl)propionate]
[1]
  Change of WOMAC Joint Stiffness score from baseline (±SEM), adjusted by […] of the Testing Drug Amount: −39.1(±5.1) mm
  Percentage of improvement from baseline, WOMAC Joint Stiffness score, adjusted by […] of the Testing Drug Amount: −60.9%
  Change of WOMAC Joint Stiffness score from baseline (±SEM): −22.8(±3.7) mm
  Percentage of improvement from baseline, WOMAC Joint Stiffness score: −35.5%
[2]
  Change of WOMAC Joint Stiffness score from baseline (±SEM), adjusted by […] of the Testing Drug Amount: −20.1(±4.3) mm
  Percentage of improvement from baseline, WOMAC Joint Stiffness score, adjusted by […] of the Testing Drug Amount: −31.2%
  Change of WOMAC Joint Stiffness score from baseline (±SEM): −11.7(±2.5) mm
  Percentage of improvement from baseline, WOMAC Joint Stiffness score: −18.2%
[3]
  Change of WOMAC Joint Stiffness score from baseline (±SEM), adjusted by […] of the Testing Drug Amount: −31.7(±5.7) mm
  Percentage of improvement from baseline, WOMAC Joint Stiffness score, adjusted by […] of the Testing Drug Amount: −49.4%
  Change of WOMAC Joint Stiffness score from baseline (±SEM): −18.5(±3.3) mm
  Percentage of improvement from baseline, WOMAC Joint Stiffness score: −28.8%
[4]
  Change of WOMAC Joint Stiffness score from baseline (±SEM), adjusted by […] of the Testing Drug Amount: −37.6(±6.0) mm
  Percentage of improvement from baseline, WOMAC Joint Stiffness score, adjusted by […] of the Testing Drug Amount: −58.5%
  Change of WOMAC Joint Stiffness score from baseline (±SEM): −21.9(±3.5) mm
  Percentage of improvement from baseline, WOMAC Joint Stiffness score: −34.1%
[5]
  Change of WOMAC Joint Stiffness score from baseline (±SEM), adjusted by […] of the Testing Drug Amount: −38.4(±5.3) mm
  Percentage of improvement from baseline, WOMAC Joint Stiffness score, adjusted by […] of the Testing Drug Amount: −59.7%
  Change of WOMAC Joint Stiffness score from baseline (±SEM): −22.4(±3.1) mm
  Percentage of improvement from baseline, WOMAC Joint Stiffness score: −34.8%
[6]
  Change of WOMAC Joint Stiffness score from baseline (±SEM), adjusted by […] of the Testing Drug Amount: −44.7(±6.2) mm
  Percentage of improvement from baseline, WOMAC Joint Stiffness score, adjusted by […] of the Testing Drug Amount: −65.9%
  Change of WOMAC Joint Stiffness score from baseline (±SEM): −26.1(±3.6) mm
  Percentage of improvement from baseline, WOMAC Joint Stiffness score: −38.4%
[7]
  Change of WOMAC Joint Stiffness score from baseline (±SEM), adjusted by […] of the Testing Drug Amount: −32.2(±4.3) mm
  Percentage of improvement from baseline, WOMAC Joint Stiffness score, adjusted by […] of the Testing Drug Amount: −47.3%
  Change of WOMAC Joint Stiffness score from baseline (±SEM): −18.8(±2.5) mm
  Percentage of improvement from baseline, WOMAC Joint Stiffness score: −27.6%
[8]
  Change of WOMAC Joint Stiffness score from baseline (±SEM), adjusted by […] of the Testing Drug Amount: −40.0(±5.1) mm
  Percentage of improvement from baseline, WOMAC Joint Stiffness score, adjusted by […] of the Testing Drug Amount: −58.8%
  Change of WOMAC Joint Stiffness score from baseline (±SEM): −23.3(±3.0) mm
  Percentage of improvement from baseline, WOMAC Joint Stiffness score: −34.3%
[9]
  Change of WOMAC Joint Stiffness score from baseline (±SEM), adjusted by […] of the Testing Drug Amount: −45.5(±5.3) mm
  Percentage of improvement from baseline, WOMAC Joint Stiffness score, adjusted by […] of the Testing Drug Amount: −66.9%
  Change of WOMAC Joint Stiffness score from baseline (±SEM): −26.5(±3.1) mm
  Percentage of improvement from baseline, WOMAC Joint Stiffness score: −39.0%
[10]
  Change of WOMAC Joint Stiffness score from baseline (±SEM), adjusted by […] of the Testing Drug Amount: −51.1(±5.8) mm
  Percentage of improvement from baseline, WOMAC Joint Stiffness score, adjusted by […] of the Testing Drug Amount: −75.1%
  Change of WOMAC Joint Stiffness score from baseline (±SEM): −29.8(±3.4) mm
  Percentage of improvement from baseline, WOMAC Joint Stiffness score: −43.8%
[11]
  Change of WOMAC Joint Stiffness score from baseline (±SEM), adjusted by […] of the Testing Drug Amount: −41.9(±5.3) mm
  Percentage of improvement from baseline, WOMAC Joint Stiffness score, adjusted by […] of the Testing Drug Amount: −67.4%
  Change of WOMAC Joint Stiffness score from baseline (±SEM): −24.4(±3.1) mm
  Percentage of improvement from baseline, WOMAC Joint Stiffness score: −39.3%
[12]
  Change of WOMAC Joint Stiffness score from baseline (±SEM), adjusted by […] of the Testing Drug Amount: −19.3(±4.6) mm
  Percentage of improvement from baseline, WOMAC Joint Stiffness score, adjusted by […] of the Testing Drug Amount: −31.2%
  Change of WOMAC Joint Stiffness score from baseline (±SEM): −11.3(±2.7) mm
  Percentage of improvement from baseline, WOMAC Joint Stiffness score: −18.2%
[13]
  Change of WOMAC Joint Stiffness score from baseline (±SEM), adjusted by […] of the Testing Drug Amount: −30.2(±5.0) mm
  Percentage of improvement from baseline, WOMAC Joint Stiffness score, adjusted by […] of the Testing Drug Amount: −48.5%
  Change of WOMAC Joint Stiffness score from baseline (±SEM): −17.6(±2.9) mm
  Percentage of improvement from baseline, WOMAC Joint Stiffness score: −28.3%

Source: patent US20240024273A1, “TOPICAL ADMINISTRATION OF 2-(DIETHYLAMINO)ETHYL 2-(4-ISOBUTYLPHENYL)PROPRIONATE FOR TREATMENT OF DISEASES” (TECHFIELDS PHARMA CO., LTD., priority 2020, published 2024)
